Columns and labels:
Assay in all cases: Reduction of azo substrates over 24 hours at 35° C., microtitration plate (Example 1)
Assay type in all cases: cell-based
Acinetobacter baumanii = test system: Acinetobacter baumanii; set-up: key to RED (substrate reduced or not): RED indicates whether the substrate is reduced (Y) or not (N); RED indicates whether the substrate is reduced (Y) or not (N); key to Decol (substrate decolourized, decrease in absorbance) / Fluo (fluorescence multiplied by 2 relative to substrate-free control) / Co (growth, absorbance at 660 nm): The symbol “+” means good growth/decolourization/significant increase in fluorescence; The symbol “+/−” means difficult growth; The symbol “−” means that there is no growth/decolourization/significant increase in fluorescence; conditions: A. baumannii, substrate 35 mg/l
Experimental: (§1) Reduction of the “azo” function of the substrates listed in Table I by the species listed in Table II, each species being represented by a strain, is tested in a microtitration plate.
(§2) The reaction medium consists of: • Trypcase soya broth • Substrate 35 mg/l • 0.5 MacFarland inoculum
(§3) The reduction of the substrate and the growth of the microorganisms are monitored using an Infinite® M200 Tecan microplate reader at 35° C. over 24 hours.
(§4) The growth is monitored by the absorbance at 660 nm and the reduction of the substrates by absorbance and fluorescence at the specific wavelengths indicated in Table III.
(§5) The substrate is considered as reduced by the microorganisms when the substrate is decolourized (monitored by the decrease in absorbance) (Decol) and/or when the fluorescence of the substrate is multiplied by 2 relative to the base fluorescence of a substrate-free control (Fluo). The growth is indicated by Co. The symbol “+” means good growth/decolourization/significant increase in fluorescence. The symbol “+/−” means difficult growth. The symbol “−” means that there is no growth/decolourization/significant increase in fluorescence. RED indicates whether the substrate is reduced (Y) or not (N).

Enterococcus faecalis = test system: Enterococcus faecalis; set-up: key to RED (substrate reduced or not): RED indicates whether the substrate is reduced (Y) or not (N); RED indicates whether the substrate is reduced (Y) or not (N); key to Decol (substrate decolourized, decrease in absorbance) / Fluo (fluorescence multiplied by 2 relative to substrate-free control) / Co (growth, absorbance at 660 nm): The symbol “+” means good growth/decolourization/significant increase in fluorescence; The symbol “+/−” means difficult growth; The symbol “−” means that there is no growth/decolourization/significant increase in fluorescence; conditions: E. faecalis, substrate 35 mg/l
Experimental: as §1, §2, §3, §4, §5

Staphylococcus aureus = test system: Staphylococcus aureus; set-up: key to RED (substrate reduced or not): RED indicates whether the substrate is reduced (Y) or not (N); RED indicates whether the substrate is reduced (Y) or not (N); key to Co (growth, absorbance at 660 nm) / Decol (substrate decolourized, decrease in absorbance) / Fluo (fluorescence multiplied by 2 relative to substrate-free control): The symbol “+” means good growth/decolourization/significant increase in fluorescence; The symbol “+/−” means difficult growth; The symbol “−” means that there is no growth/decolourization/significant increase in fluorescence; conditions: S. aureus, substrate 35 mg/l
Experimental: as §1, §2, §3, §4, §5

Escherichia coli = test system: Escherichia coli; set-up: key to RED (substrate reduced or not): RED indicates whether the substrate is reduced (Y) or not (N); RED indicates whether the substrate is reduced (Y) or not (N); key to Co (growth, absorbance at 660 nm) / Decol (substrate decolourized, decrease in absorbance) / Fluo (fluorescence multiplied by 2 relative to substrate-free control): The symbol “+” means good growth/decolourization/significant increase in fluorescence; The symbol “+/−” means difficult growth; The symbol “−” means that there is no growth/decolourization/significant increase in fluorescence; conditions: E. coli, substrate 35 mg/l
Experimental: as §1, §2, §3, §4, §5

Pseudomonas aeruginosa = test system: Pseudomonas aeruginosa; set-up: key to RED (substrate reduced or not): RED indicates whether the substrate is reduced (Y) or not (N); RED indicates whether the substrate is reduced (Y) or not (N); key to Co (growth, absorbance at 660 nm) / Decol (substrate decolourized, decrease in absorbance) / Fluo (fluorescence multiplied by 2 relative to substrate-free control): The symbol “+” means good growth/decolourization/significant increase in fluorescence; The symbol “+/−” means difficult growth; The symbol “−” means that there is no growth/decolourization/significant increase in fluorescence; conditions: P. aeruginosa, substrate 35 mg/l
Experimental: as §1, §2, §3, §4, §5

Kocuria rosea = test system: Kocuria rosea; set-up: key to RED (substrate reduced or not): RED indicates whether the substrate is reduced (Y) or not (N); RED indicates whether the substrate is reduced (Y) or not (N); key to Co (growth, absorbance at 660 nm) / Decol (substrate decolourized, decrease in absorbance) / Fluo (fluorescence multiplied by 2 relative to substrate-free control): The symbol “+” means good growth/decolourization/significant increase in fluorescence; The symbol “+/−” means difficult growth; The symbol “−” means that there is no growth/decolourization/significant increase in fluorescence; conditions: K. rosea, substrate 35 mg/l
Experimental: as §1, §2, §3, §4, §5

[1] = test system: Staphylococcus epidermidis; set-up: key to RED (substrate reduced or not): RED indicates whether the substrate is reduced (Y) or not (N); RED indicates whether the substrate is reduced (Y) or not (N); key to Co (growth, absorbance at 660 nm) / Decol (substrate decolourized, decrease in absorbance) / Fluo (fluorescence multiplied by 2 relative to substrate-free control): The symbol “+” means good growth/decolourization/significant increase in fluorescence; The symbol “+/−” means difficult growth; The symbol “−” means that there is no growth/decolourization/significant increase in fluorescence; conditions: S. epidermidis, substrate 35 mg/l
Experimental: as §1, §2, §3, §4, §5

Cronobacter muytjensii = test system: Cronobacter muytjensii; set-up: key to RED (substrate reduced or not): RED indicates whether the substrate is reduced (Y) or not (N); RED indicates whether the substrate is reduced (Y) or not (N); key to Co (growth, absorbance at 660 nm) / Decol (substrate decolourized, decrease in absorbance) / Fluo (fluorescence multiplied by 2 relative to substrate-free control): The symbol “+” means good growth/decolourization/significant increase in fluorescence; The symbol “+/−” means difficult growth; The symbol “−” means that there is no growth/decolourization/significant increase in fluorescence; conditions: E. muytjensii, substrate 35 mg/l
Experimental: as §1, §2, §3, §4, §5

Candida albicans = test system: Candida albicans; set-up: key to RED (substrate reduced or not): RED indicates whether the substrate is reduced (Y) or not (N); RED indicates whether the substrate is reduced (Y) or not (N); key to Co (growth, absorbance at 660 nm) / Decol (substrate decolourized, decrease in absorbance) / Fluo (fluorescence multiplied by 2 relative to substrate-free control): The symbol “+” means good growth/decolourization/significant increase in fluorescence; The symbol “+/−” means difficult growth; The symbol “−” means that there is no growth/decolourization/significant increase in fluorescence; conditions: substrate 35 mg/l
Experimental: as §1, §2, §3, §4, §5

Geotrichum candidum = test system: Geotrichum candidum; set-up: key to RED (substrate reduced or not): RED indicates whether the substrate is reduced (Y) or not (N); RED indicates whether the substrate is reduced (Y) or not (N); key to Co (growth, absorbance at 660 nm) / Decol (substrate decolourized, decrease in absorbance) / Fluo (fluorescence multiplied by 2 relative to substrate-free control): The symbol “+” means good growth/decolourization/significant increase in fluorescence; The symbol “+/−” means difficult growth; The symbol “−” means that there is no growth/decolourization/significant increase in fluorescence; conditions: G. candidum, substrate 35 mg/l
Experimental: as §1, §2, §3, §4, §5

O=S(=O)([O-])c1ccc(/N=N/c2ccc(O)c3ccccc23)cc1.[Na+] [Orange I]
Co (growth, absorbance at 660 nm) (Acinetobacter baumanii): +
Decol (substrate decolourized, decrease in absorbance) (Acinetobacter baumanii): +/−
Fluo (fluorescence multiplied by 2 relative to substrate-free control) (Acinetobacter baumanii): −
RED (substrate reduced or not) (Acinetobacter baumanii): Y
Co (growth, absorbance at 660 nm) (Enterococcus faecalis): +
Decol (substrate decolourized, decrease in absorbance) (Enterococcus faecalis): +
Fluo (fluorescence multiplied by 2 relative to substrate-free control) (Enterococcus faecalis): −
RED (substrate reduced or not) (Enterococcus faecalis): Y
Co (growth, absorbance at 660 nm) (Staphylococcus aureus): +
Decol (substrate decolourized, decrease in absorbance) (Staphylococcus aureus): +
Fluo (fluorescence multiplied by 2 relative to substrate-free control) (Staphylococcus aureus): −
RED (substrate reduced or not) (Staphylococcus aureus): Y
Co (growth, absorbance at 660 nm) (Escherichia coli): +
Decol (substrate decolourized, decrease in absorbance) (Escherichia coli): +
Fluo (fluorescence multiplied by 2 relative to substrate-free control) (Escherichia coli): −
RED (substrate reduced or not) (Escherichia coli): Y
Co (growth, absorbance at 660 nm) (Pseudomonas aeruginosa): +
Decol (substrate decolourized, decrease in absorbance) (Pseudomonas aeruginosa): −
Fluo (fluorescence multiplied by 2 relative to substrate-free control) (Pseudomonas aeruginosa): −
RED (substrate reduced or not) (Pseudomonas aeruginosa): N
Co (growth, absorbance at 660 nm) (Kocuria rosea): −
Decol (substrate decolourized, decrease in absorbance) (Kocuria rosea): −
Fluo (fluorescence multiplied by 2 relative to substrate-free control) (Kocuria rosea): −
Co (growth, absorbance at 660 nm) [1]: +
Decol (substrate decolourized, decrease in absorbance) [1]: +
Fluo (fluorescence multiplied by 2 relative to substrate-free control) [1]: −
RED (substrate reduced or not) [1]: Y
Co (growth, absorbance at 660 nm) (Cronobacter muytjensii): +
Decol (substrate decolourized, decrease in absorbance) (Cronobacter muytjensii): +
Fluo (fluorescence multiplied by 2 relative to substrate-free control) (Cronobacter muytjensii): −
RED (substrate reduced or not) (Cronobacter muytjensii): Y
Co (growth, absorbance at 660 nm) (Candida albicans): +
Decol (substrate decolourized, decrease in absorbance) (Candida albicans): −
Fluo (fluorescence multiplied by 2 relative to substrate-free control) (Candida albicans): −
RED (substrate reduced or not) (Candida albicans): N
Co (growth, absorbance at 660 nm) (Geotrichum candidum): +/−
Decol (substrate decolourized, decrease in absorbance) (Geotrichum candidum): −
Fluo (fluorescence multiplied by 2 relative to substrate-free control) (Geotrichum candidum): −
RED (substrate reduced or not) (Geotrichum candidum): N

CC(=O)Oc1ccc(/N=N/c2ccccc2C(=O)O)cc1 [2-(4-acetoxyphenylazo)benzoic acid, 2-(4-Acetoxyphenylazo)benzoic acid]
Co (growth, absorbance at 660 nm) (Acinetobacter baumanii): +
Decol (substrate decolourized, decrease in absorbance) (Acinetobacter baumanii): +
Fluo (fluorescence multiplied by 2 relative to substrate-free control) (Acinetobacter baumanii): +
RED (substrate reduced or not) (Acinetobacter baumanii): Y
Co (growth, absorbance at 660 nm) (Enterococcus faecalis): +
Decol (substrate decolourized, decrease in absorbance) (Enterococcus faecalis): +
Fluo (fluorescence multiplied by 2 relative to substrate-free control) (Enterococcus faecalis): +
RED (substrate reduced or not) (Enterococcus faecalis): Y
Co (growth, absorbance at 660 nm) (Staphylococcus aureus): +
Decol (substrate decolourized, decrease in absorbance) (Staphylococcus aureus): +
Fluo (fluorescence multiplied by 2 relative to substrate-free control) (Staphylococcus aureus): +
RED (substrate reduced or not) (Staphylococcus aureus): Y
Co (growth, absorbance at 660 nm) (Escherichia coli): +
Decol (substrate decolourized, decrease in absorbance) (Escherichia coli): +
Fluo (fluorescence multiplied by 2 relative to substrate-free control) (Escherichia coli): +
RED (substrate reduced or not) (Escherichia coli): Y
Co (growth, absorbance at 660 nm) (Pseudomonas aeruginosa): +
Decol (substrate decolourized, decrease in absorbance) (Pseudomonas aeruginosa): −
Fluo (fluorescence multiplied by 2 relative to substrate-free control) (Pseudomonas aeruginosa): −
RED (substrate reduced or not) (Pseudomonas aeruginosa): N
Co (growth, absorbance at 660 nm) (Kocuria rosea): −
Decol (substrate decolourized, decrease in absorbance) (Kocuria rosea): −
Fluo (fluorescence multiplied by 2 relative to substrate-free control) (Kocuria rosea): −
Co (growth, absorbance at 660 nm) [1]: +
Decol (substrate decolourized, decrease in absorbance) [1]: +
Fluo (fluorescence multiplied by 2 relative to substrate-free control) [1]: +
RED (substrate reduced or not) [1]: Y
Co (growth, absorbance at 660 nm) (Cronobacter muytjensii): +
Decol (substrate decolourized, decrease in absorbance) (Cronobacter muytjensii): +
Fluo (fluorescence multiplied by 2 relative to substrate-free control) (Cronobacter muytjensii): +
RED (substrate reduced or not) (Cronobacter muytjensii): Y
Co (growth, absorbance at 660 nm) (Candida albicans): +
Decol (substrate decolourized, decrease in absorbance) (Candida albicans): −
Fluo (fluorescence multiplied by 2 relative to substrate-free control) (Candida albicans): −
RED (substrate reduced or not) (Candida albicans): N
Co (growth, absorbance at 660 nm) (Geotrichum candidum): +
Decol (substrate decolourized, decrease in absorbance) (Geotrichum candidum): +
Fluo (fluorescence multiplied by 2 relative to substrate-free control) (Geotrichum candidum): +
RED (substrate reduced or not) (Geotrichum candidum): Y

— US20150125889A1, “IN VITRO DETECTION OF MICROORGANISMS WITH AZOREDUCTASE ACTIVITY” (BIOMÉRIEUX, priority 2012, published 2015)
